Read-outs that look alike come from different tables or passages of the source.

Consider 1 molecule from paper PMC4979471 (Cell Death Discovery, 2015).

What all share (assay): Kinase selectivity, P33-radiolabeled assay
Common to all, as to assay type: biochemical
What all share (conditions): 10 μM ATP

In one assay the target is T1, CDC7/DBF4 (Homo sapiens, UniProt O00311).
T1 construct: purchased Reaction Biology Corp
The procedure, abridged:
(§1)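 Activity relative to DMSO controls (%) was measured for compound at 10 μM. Assays ran at 10 μM ATP, in duplicate.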

For another assay, the target named is T2, MAPKAPK2 (Homo sapiens, UniProt P49137).
T2 construct: purchased Reaction Biology Corp
T2 sequence (P49137 whole entry): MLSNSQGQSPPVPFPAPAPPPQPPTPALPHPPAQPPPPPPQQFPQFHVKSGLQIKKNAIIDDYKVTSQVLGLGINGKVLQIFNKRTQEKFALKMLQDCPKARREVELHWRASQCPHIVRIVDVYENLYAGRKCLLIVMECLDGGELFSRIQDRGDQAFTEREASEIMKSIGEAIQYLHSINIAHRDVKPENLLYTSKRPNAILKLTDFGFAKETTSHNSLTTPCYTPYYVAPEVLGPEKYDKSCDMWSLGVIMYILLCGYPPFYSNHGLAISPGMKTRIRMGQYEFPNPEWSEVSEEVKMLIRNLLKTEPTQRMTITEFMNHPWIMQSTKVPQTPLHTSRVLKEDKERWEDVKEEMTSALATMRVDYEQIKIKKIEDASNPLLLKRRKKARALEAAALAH
In outline:
as §1

The target of another assay is T3, PKG1a (Homo sapiens, UniProt Q13976).
T3 construct: purchased Reaction Biology Corp
T3 sequence (Q13976 1-671): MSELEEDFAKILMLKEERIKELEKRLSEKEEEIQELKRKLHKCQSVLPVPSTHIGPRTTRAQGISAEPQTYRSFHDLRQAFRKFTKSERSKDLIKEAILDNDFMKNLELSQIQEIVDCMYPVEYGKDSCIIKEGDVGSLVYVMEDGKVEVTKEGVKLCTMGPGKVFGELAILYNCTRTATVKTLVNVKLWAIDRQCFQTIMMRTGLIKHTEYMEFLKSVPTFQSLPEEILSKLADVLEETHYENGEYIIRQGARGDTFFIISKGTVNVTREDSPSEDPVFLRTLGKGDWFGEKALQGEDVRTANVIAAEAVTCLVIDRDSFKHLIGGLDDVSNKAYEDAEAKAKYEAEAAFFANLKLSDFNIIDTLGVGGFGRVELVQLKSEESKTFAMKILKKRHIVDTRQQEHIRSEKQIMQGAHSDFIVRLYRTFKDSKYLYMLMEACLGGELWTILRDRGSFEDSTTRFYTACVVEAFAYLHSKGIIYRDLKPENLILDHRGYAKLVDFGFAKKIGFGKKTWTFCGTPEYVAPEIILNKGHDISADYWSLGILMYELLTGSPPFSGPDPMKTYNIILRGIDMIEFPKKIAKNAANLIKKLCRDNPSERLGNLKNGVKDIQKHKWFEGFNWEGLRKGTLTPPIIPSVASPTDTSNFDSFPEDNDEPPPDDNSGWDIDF
The procedure, abridged:
as §1

For the next assay, the target named is T4, RET (Homo sapiens, UniProt P07949).
T4 construct: purchased Reaction Biology Corp
T4 sequence (P07949 29-1114): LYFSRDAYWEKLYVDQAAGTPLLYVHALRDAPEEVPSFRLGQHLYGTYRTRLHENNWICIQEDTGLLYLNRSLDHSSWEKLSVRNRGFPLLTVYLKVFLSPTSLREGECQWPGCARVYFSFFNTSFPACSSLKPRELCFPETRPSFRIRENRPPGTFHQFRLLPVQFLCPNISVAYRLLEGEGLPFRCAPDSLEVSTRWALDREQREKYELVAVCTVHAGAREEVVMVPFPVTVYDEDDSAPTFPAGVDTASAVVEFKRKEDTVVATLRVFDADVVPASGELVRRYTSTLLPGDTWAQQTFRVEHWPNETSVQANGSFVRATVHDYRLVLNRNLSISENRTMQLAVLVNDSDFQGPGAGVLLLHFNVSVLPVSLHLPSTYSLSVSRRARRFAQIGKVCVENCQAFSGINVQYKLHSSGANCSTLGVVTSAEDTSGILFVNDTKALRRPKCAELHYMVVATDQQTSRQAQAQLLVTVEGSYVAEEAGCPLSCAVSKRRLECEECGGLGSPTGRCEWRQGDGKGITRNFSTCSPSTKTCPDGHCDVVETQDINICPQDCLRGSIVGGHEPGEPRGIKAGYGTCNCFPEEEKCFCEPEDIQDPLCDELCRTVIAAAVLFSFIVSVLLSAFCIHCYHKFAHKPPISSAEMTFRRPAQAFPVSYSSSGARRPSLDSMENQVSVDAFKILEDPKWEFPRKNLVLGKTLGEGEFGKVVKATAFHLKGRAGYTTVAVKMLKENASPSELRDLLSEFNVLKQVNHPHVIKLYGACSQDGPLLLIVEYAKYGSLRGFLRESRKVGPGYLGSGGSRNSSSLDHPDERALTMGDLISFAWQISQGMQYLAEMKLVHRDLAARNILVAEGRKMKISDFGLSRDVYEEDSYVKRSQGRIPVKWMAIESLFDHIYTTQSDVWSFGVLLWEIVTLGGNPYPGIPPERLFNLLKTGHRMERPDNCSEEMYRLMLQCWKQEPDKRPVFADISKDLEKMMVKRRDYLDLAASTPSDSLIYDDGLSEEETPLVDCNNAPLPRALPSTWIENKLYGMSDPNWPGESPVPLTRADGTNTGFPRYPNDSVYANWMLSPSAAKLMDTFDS
The procedure, abridged:
as §1

The next assay has as its target T5, RSK1 (Homo sapiens, UniProt Q15418).
T5 construct: purchased Reaction Biology Corp
The procedure, abridged: as §1

In another assay the target is T6, c-MER (Homo sapiens, UniProt Q12866).
T6 construct: purchased Reaction Biology Corp
T6 sequence (Q12866 21-999): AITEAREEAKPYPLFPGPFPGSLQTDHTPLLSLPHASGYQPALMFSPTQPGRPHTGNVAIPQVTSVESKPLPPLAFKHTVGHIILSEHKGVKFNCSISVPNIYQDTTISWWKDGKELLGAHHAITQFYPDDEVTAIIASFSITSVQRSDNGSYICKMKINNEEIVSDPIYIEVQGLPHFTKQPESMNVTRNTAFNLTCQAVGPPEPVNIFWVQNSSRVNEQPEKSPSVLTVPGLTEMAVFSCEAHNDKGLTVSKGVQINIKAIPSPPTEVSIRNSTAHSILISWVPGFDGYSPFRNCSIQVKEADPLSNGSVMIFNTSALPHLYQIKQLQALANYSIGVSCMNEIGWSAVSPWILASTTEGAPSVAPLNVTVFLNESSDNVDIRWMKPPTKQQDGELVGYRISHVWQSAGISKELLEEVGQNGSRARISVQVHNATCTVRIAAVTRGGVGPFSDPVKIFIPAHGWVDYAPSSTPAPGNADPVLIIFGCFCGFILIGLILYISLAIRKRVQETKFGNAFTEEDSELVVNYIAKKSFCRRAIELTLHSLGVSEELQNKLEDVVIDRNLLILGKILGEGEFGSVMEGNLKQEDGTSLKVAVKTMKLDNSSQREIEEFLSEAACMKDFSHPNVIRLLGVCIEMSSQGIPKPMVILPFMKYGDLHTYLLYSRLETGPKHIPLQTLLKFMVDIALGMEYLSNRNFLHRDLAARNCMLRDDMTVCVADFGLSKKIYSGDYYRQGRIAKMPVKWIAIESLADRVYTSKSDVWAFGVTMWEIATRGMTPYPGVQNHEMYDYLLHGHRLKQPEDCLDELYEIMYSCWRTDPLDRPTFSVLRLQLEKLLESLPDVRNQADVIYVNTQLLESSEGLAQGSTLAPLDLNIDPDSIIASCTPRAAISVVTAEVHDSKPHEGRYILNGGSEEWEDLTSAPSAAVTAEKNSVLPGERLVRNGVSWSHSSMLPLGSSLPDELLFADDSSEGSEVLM
The procedure, abridged:
as §1

Setting [1] is: read-out: % Enzyme Activity (relative to DMSO controls) AVG.
Where [2] appears, read: read-out: % Enzyme Activity (relative to DMSO controls) Data 1.
Setting [3] is: read-out: % Enzyme Activity (relative to DMSO controls) Data 2.

T5 sequence (Q15418 whole entry): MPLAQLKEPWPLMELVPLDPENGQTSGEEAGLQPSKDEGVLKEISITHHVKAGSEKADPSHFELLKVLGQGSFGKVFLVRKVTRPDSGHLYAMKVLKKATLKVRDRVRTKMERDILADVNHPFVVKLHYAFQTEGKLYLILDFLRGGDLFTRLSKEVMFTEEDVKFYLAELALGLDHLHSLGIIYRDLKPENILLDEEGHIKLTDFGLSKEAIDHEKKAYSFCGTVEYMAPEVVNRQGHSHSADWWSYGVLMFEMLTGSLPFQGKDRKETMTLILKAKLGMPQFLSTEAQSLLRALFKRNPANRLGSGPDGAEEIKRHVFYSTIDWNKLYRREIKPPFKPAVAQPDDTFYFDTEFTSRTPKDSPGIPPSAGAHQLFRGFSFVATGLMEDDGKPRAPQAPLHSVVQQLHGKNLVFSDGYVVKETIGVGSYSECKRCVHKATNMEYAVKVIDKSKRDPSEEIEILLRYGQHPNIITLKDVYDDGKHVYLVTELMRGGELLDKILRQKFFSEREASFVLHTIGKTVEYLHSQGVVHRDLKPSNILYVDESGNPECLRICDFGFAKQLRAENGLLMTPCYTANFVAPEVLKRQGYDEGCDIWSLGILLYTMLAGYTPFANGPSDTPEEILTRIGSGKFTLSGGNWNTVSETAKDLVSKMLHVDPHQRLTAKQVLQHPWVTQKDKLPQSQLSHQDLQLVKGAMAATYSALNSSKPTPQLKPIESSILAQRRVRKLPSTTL
T1 sequence (O00311 whole entry): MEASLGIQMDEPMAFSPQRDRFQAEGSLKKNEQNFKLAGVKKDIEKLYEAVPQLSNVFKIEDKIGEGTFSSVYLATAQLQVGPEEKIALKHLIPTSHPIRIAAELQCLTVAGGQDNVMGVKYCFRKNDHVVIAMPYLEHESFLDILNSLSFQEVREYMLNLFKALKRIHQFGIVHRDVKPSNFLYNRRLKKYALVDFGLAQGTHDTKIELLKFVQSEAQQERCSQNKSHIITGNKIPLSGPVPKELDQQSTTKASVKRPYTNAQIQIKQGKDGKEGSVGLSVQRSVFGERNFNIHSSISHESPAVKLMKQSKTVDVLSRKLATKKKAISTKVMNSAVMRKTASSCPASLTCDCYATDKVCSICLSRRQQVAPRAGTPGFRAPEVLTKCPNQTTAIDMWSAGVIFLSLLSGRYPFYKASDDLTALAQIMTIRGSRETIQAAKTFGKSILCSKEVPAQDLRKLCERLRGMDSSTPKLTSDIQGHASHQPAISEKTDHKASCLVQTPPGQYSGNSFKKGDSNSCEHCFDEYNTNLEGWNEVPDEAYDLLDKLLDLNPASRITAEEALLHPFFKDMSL
T1 sequence (Q9UBU7 whole entry partner): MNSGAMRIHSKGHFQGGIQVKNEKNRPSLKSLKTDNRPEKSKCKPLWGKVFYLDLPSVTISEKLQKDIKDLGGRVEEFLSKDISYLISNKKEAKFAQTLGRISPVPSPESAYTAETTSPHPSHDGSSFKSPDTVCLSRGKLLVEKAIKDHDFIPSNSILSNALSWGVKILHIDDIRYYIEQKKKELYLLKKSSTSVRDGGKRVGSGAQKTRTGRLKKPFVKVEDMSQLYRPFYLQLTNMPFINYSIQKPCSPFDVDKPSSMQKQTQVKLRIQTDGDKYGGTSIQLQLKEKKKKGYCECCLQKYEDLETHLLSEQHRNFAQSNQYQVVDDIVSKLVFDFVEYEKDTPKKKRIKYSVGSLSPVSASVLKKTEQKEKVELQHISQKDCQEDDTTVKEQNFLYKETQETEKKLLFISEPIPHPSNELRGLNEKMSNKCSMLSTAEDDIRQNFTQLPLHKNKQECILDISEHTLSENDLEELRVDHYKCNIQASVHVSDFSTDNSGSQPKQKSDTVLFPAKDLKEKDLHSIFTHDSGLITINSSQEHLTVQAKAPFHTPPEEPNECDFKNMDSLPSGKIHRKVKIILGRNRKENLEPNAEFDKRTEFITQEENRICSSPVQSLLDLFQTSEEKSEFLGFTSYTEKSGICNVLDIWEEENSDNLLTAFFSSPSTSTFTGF

Consider `CC(C)(C)C(=O)N1N=CC[C@H]1c1ccccc1` [GSK′963], for which the remaining activity at 10 µM was 103% on CDC7/DBF4 (setting [1]); 105% on CDC7/DBF4 (setting [2]); 101% at CDC7/DBF4 (setting [3]); 112% on MAPKAPK2 (setting [1]); 115% at MAPKAPK2 (setting [2]); 109% on MAPKAPK2 (setting [3]). The remaining activity at 10 µM came to 90% on PKG1a (setting [1]); 92.4% on PKG1a (setting [2]); 87.7% on PKG1a (setting [3]); 108% at RET (setting [1]); 107% on RET (setting [2]); 108% at RET (setting [3]). The remaining activity at 10 µM at RSK1 (setting [1]) worked out at 126%; on RSK1 (setting [2]) it was 123%; on RSK1 (setting [3]) it was 128%; at c-MER (setting [1]), 94.8%; at c-MER (setting [2]) it was 94.5%; on c-MER (setting [3]), 95.1%.
